Data reported in US9618524B2, “Method, composition, isolation and identification of a plaque particle and related biomarker” (Plaxgen Inc., priority 2012, dated 2017).

Experiments:
Assay in all cases: Mass spectroscopy proteomics, semi-quantitative binding affinity of serum proteins (plaqueproteome, Table 2)
Settings in all cases: higher number = stronger affinity
[1] = test system: Low density cholesterol (Chl small) plaque particles; design: species or system human
Method: (§1) The goal was to isolate plaque particles synthesized in the bio-fluids in a relatively pure form to enable their subsequent use for identification of components that contribute to the plaque formation. In order to isolate cholesterol plaque particles, the plasma or serum samples obtained from atherosclerotic subjects were first centrifuged at 5,000 rpm for 5 min and the supernatants were transferred to new centrifuge tubes. Next, the supernatants were diluted in PBS to make 50% of the serum and used for incubation with cholesterol oligomers/aggregates. Each assay was performed in 1 mL reaction (800 μL of 50% plasma or serum) and 200 μL (30 μg) of the Cholesterol aggregates and the mixtures were incubated at 37° C. for 1 hr After the incubation, the mixture was directly used for sample acquisition using flow cytometer (FACS ARIA II, BD Biosciences, San Jose, Calif.). […] In order to isolate these fractions, three sets of gates were drawn in the acquisition blot to separately sort and isolate High density or high complex cholesterol particles, Low density or low complex cholesterol particles and both High and low density cholesterol particles together.
(§2) For preparing trypsin digested peptide sequences, the isolated plaque particles were centrifuged at 10000 rpm for 5 min and the pellet containing plaque particles was resuspended in 100 μl PBS buffer. Stock solutions of digestion buffer (Ammonium Biocarbonate 50 mM), reducing buffer (DDT 100 mM) and alkylation buffer (lodoaceamide 100 mM) were prepared and stored at −20° C. for up to two months. For trypsin digestion, 100 μl of each plaque particles (2000 of Abeta-42, cholesterol, Tau and alpha-synuclein) were precipitated using cold acetone −80° C. by adding 4X's the volume. The samples were placed on dry ice for 10 min with intermittent vortex. Next, the samples were centrifuged at 4° C. at 10000 G for 10 min. Top layer of acetone was carefully removed from the tube with care not to disturb the plaque particles pellet. The samples were speed-vac for 10 min to ensure all acetone has been boiled away. The plaque particles pellet were reconstituted with 15 μl 8M Urea 100 mM Ammonium bicarbonate stock and 20 μl protease max solution. The protease max solution (Promega, Madison, Wis.) was prepared from stock by adding 60 μl 50 mM Ammonium bicarbonate and used for 3 solution digests (20 μl each). […] The tubes were incubated at 55° C. for 30 minutes. The tubes were then removed and brought to the room temperature followed by addition of 3.2 μl of 1M acrylamide and incubated at room temperature for 30 minutes. To the sample, 63 μL of 50 mM Ammonium bicarbonate was added for a final volume of 98 μl and 2 μl of trypsin (10 μg, Trypsin/Lys C Mix). After mixing the solution with pipet the samples were incubated at 37° C. overnight. After the overnight digest, the tryptic digest were quenched and acidified by adding 10 μl of 50% formic acid/water stock dilution. The samples were centrifuged at 10000 G for 2 minutes and purified using stage tip and used for MS/Mass analysis.
(§3) All MS/MS samples were analyzed using Sequest (Thermo Fisher Scientific, San Jose, Calif., USA; version 1.0). Sequest was set up to search the SUMS_uniprot_Human database (35847 entries) assuming the digestion enzyme strict trypsin. Sequest was searched with a fragment ion mass tolerance of 1.00 Da and a parent ion tolerance of 20 PPM. Propionamide of cysteine was specified in Sequest as a fixed modification. Oxidation of methionine and phospho of serine, threonine and tyrosine were specified in Sequest as variable modifications.
(§4) Scaffold (version Scaffold_4.2.1, Proteome Software Inc., Portland, Oreg.) was used to validate MS/MS based peptide and protein identifications. […] Protein probabilities were assigned by the Protein Prophet algorithm (Nesvizhskii, Al et al 2003).

[2] = test system: High Density cholesterol (Chl Large) plaque particles; design: species or system human
Method: as §1, §2, §3, §4

Tau plaque particles = test system: Tau plaque particles; design: species or system human
Method: For Tau-74 (74-102) (Exon 3/Insert 2 domain) preparation, 1 mg of Tau-74 was suspended in 1 mL of PBS and the sample was incubated at 37° C. for 2 hrs. Similarly for preparing Tau-275 (275-305) (Repeat 2 domain) 1 mg of the peptide was suspended in 1 mL of PBS and the sample was incubated at 37° C. for 2 hrs. After incubation, all the samples were centrifuged for 5 min. at 5000 rpm to remove precipitate, if any, and the supernatant containing oligomers/aggregates were used for in vitro amyloid plaque particles formation assay. For detecting Tau plaque particles, Thioflavin S (Ex/Em=430 nm/550 nm) amyloid binding fluorescent dye (10 μg) was used in the assay.
Next, to isolate Tau plaque particles, as performed for Abeta-42 and Abeta-28 plaque particles isolation, diluted serum samples were used for incubation separately with Tau-45, Tau-74 and Tau-275 oligomers/aggregates. Each assay was performed in 1 mL reaction (800 μL of 50% plasma or serum) and 200 μL (30 μg) of each Tau aggregates and the mixtures were incubated at 37° C. for 1 hr. To the each mixture Thioflavin S dye (120 μg) was added and the sample was incubated for additional 30 min at 37° C. After the incubation, each sample was directly used for sample acquisition using flow cytometer (FACS ARIA II, BD Biosciences, San Jose, Calif.). After initial detection of Tau plaque particles, gates were drawn in the acquisition blot to separately sort and isolate fluorescently labeled Tau plaque particles.
as §2, §3

[3] = target: T1, Abeta-42 plaque particles (Homo sapiens, UniProt P05067)
T1 construct: Abeta 1-42
Method: Next to isolate serum derived Abeta-42 plaque particles, the plasma or serum samples obtained from AD subjects were first centrifuged at 5,000 rpm for 5 min and the supernatants were transferred to new centrifuge tubes. Next, the supernatants were diluted in PBS to make 50% of the serum and plasma samples and used for incubation with Abeta-42 plaque oligomers/aggregates. Each assay was performed in 1 mL reaction (800 μL of 50% plasma or serum) and 200 μL (30 μg) of the Abeta-42 aggregates and the mixtures were incubated at 37° C. for 1 hr. To the mixture Thioflavin S dye (120 μg) was added and the sample was incubated for additional 30 min at 37° C. After the incubation, the mixture was directly used for sample acquisition using flow cytometer (FACS ARIA II, BD Biosciences, San Jose, Calif.). After initial detection of Abeta-42 plaque particles in the acquisition blot, gates were drawn in fluorescent dot blot to separately sort and isolate fluorescently labeled Abeta-42 particles.
as §2, §3
as §4, with “2003). […] Proteins sharing significant peptide evidence were grouped into clusters. Proteins were annotated with GO terms from NCBI (downloaded Jan. 17, 2014).” for “2003).”

[4] = target: T2, alpha-synuclein plaque particles (Homo sapiens, UniProt P37840)
T2 construct: 140 amino acids polypeptide
Method: To prepare oligomers/aggregates of human alpha-synuclein (140 amino acids polypeptide), 1 mg of the recombinant alpha-synuclein protein was suspended in 1 mL of PBS and the sample was incubated at 37° C. for 2 hrs. After incubation, all the samples were centrifuged for 5 min. at 5000 rpm to remove precipitate, if any, and the supernatant containing oligomers/aggregates were used in vitro plaque particles formation assay. For detecting alpha-synuclein plaque particles Thioflavin S (Ex/Em=430 nm/550 nm) amyloid binding fluorescent dye (10 μg) was used.
Similarly, to isolate alpha-synuclein plaque particles, diluted plasma or serum samples obtained from AD subjects were used for incubation with alpha-synuclein plaque oligomers/aggregates. Each assay was performed in 1 mL reaction (800 μL of 50% plasma or serum) and 200 μL (30 μg) of the alpha-synuclein aggregates and the mixtures were incubated at 37° C. for 1 hr. To the mixture Thioflavin S dye (120 μg) was added and the sample was incubated for additional 30 min at 37° C. After the incubation, the mixture was directly used for sample acquisition using flow cytometer (FACS ARIA II, BD Biosciences, San Jose, Calif.). After initial detection of alpha-synuclein plaque particles, gates were drawn in the acquisition blot to separately sort and isolate fluorescently labeled alpha-synuclein particles.
as §2, §3
Scaffold (version Scaffold_4.2.1, Proteome Software Inc., Portland, Oreg.) was used to validate MS/MS based peptide and protein identifications.

With Apolipoprotein C-III the “Semi-quantitative analysis of proteins binding to different plaque particles: Chl small” value [1] was 4, the “Semi-quantitative analysis of proteins binding to different plaque particles: Chl Large” value [2] was 4 and the “Semi-quantitative analysis of proteins binding to different plaque particles: Tau” value (Tau plaque particles) was 5. For the same substance, the “Semi-quantitative analysis of proteins binding to different plaque particles: Abeta-42” value [3] was 4 and the “Semi-quantitative analysis of proteins binding to different plaque particles: Synuclein” value [4] was 1.
In the case of Ig gamma-4 chain C region, the “Semi-quantitative analysis of proteins binding to different plaque particles: Chl small” value [1] was 11, the “Semi-quantitative analysis of proteins binding to different plaque particles: Chl Large” value [2] was 7 and the “Semi-quantitative analysis of proteins binding to different plaque particles: Tau” value (Tau plaque particles) was 11. The “Semi-quantitative analysis of proteins binding to different plaque particles: Abeta-42” value [3] was 7 and the “Semi-quantitative analysis of proteins binding to different plaque particles: Synuclein” value [4] was 8.
For Ig heavy chain V-III region VH26, the “Semi-quantitative analysis of proteins binding to different plaque particles: Chl small” value [1] was 3, the “Semi-quantitative analysis of proteins binding to different plaque particles: Chl Large” value [2] was 2 and the “Semi-quantitative analysis of proteins binding to different plaque particles: Tau” value (Tau plaque particles) was 3. The “Semi-quantitative analysis of proteins binding to different plaque particles: Abeta-42” value [3] was 7 and the “Semi-quantitative analysis of proteins binding to different plaque particles: Synuclein” value [4] was 1.
In the case of Isoform 2 of Annexin A2, the “Semi-quantitative analysis of proteins binding to different plaque particles: Chl small” value [1] was 0, the “Semi-quantitative analysis of proteins binding to different plaque particles: Chl Large” value [2] was 0 and the “Semi-quantitative analysis of proteins binding to different plaque particles: Tau” value (Tau plaque particles) was 0. The “Semi-quantitative analysis of proteins binding to different plaque particles: Abeta-42” value [3] was 2 and the “Semi-quantitative analysis of proteins binding to different plaque particles: Synuclein” value [4] was 0.
For Hemopexin, the “Semi-quantitative analysis of proteins binding to different plaque particles: Chl small” value [1] was 16, the “Semi-quantitative analysis of proteins binding to different plaque particles: Chl Large” value [2] was 22 and the “Semi-quantitative analysis of proteins binding to different plaque particles: Tau” value (Tau plaque particles) was 16. For the same substance, the “Semi-quantitative analysis of proteins binding to different plaque particles: Abeta-42” value [3] was 11 and the “Semi-quantitative analysis of proteins binding to different plaque particles: Synuclein” value [4] was 18.
With Immunoglobulin J chain the “Semi-quantitative analysis of proteins binding to different plaque particles: Chl small” value [1] was 1, the “Semi-quantitative analysis of proteins binding to different plaque particles: Chl Large” value [2] was 1 and the “Semi-quantitative analysis of proteins binding to different plaque particles: Tau” value (Tau plaque particles) was 1. For the same substance, the “Semi-quantitative analysis of proteins binding to different plaque particles: Abeta-42” value [3] was 0 and the “Semi-quantitative analysis of proteins binding to different plaque particles: Synuclein” value [4] was 2.
For Cluster of Platelet factor 4, the “Semi-quantitative analysis of proteins binding to different plaque particles: Chl small” value [1] was 0, the “Semi-quantitative analysis of proteins binding to different plaque particles: Chl Large” value [2] was 1 and the “Semi-quantitative analysis of proteins binding to different plaque particles: Tau” value (Tau plaque particles) was 1. The “Semi-quantitative analysis of proteins binding to different plaque particles: Abeta-42” value [3] was 2 and the “Semi-quantitative analysis of proteins binding to different plaque particles: Synuclein” value [4] was 1.
With Ig kappa chain V-I region AU the “Semi-quantitative analysis of proteins binding to different plaque particles: Chl small” value [1] was 1, the “Semi-quantitative analysis of proteins binding to different plaque particles: Chl Large” value [2] was 1 and the “Semi-quantitative analysis of proteins binding to different plaque particles: Tau” value (Tau plaque particles) was 0. For the same substance, the “Semi-quantitative analysis of proteins binding to different plaque particles: Abeta-42” value [3] was 2 and the “Semi-quantitative analysis of proteins binding to different plaque particles: Synuclein” value [4] was 0.
For Isoform 2 of Protein SET, the “Semi-quantitative analysis of proteins binding to different plaque particles: Chl small” value [1] was 0, the “Semi-quantitative analysis of proteins binding to different plaque particles: Chl Large” value [2] was 0 and the “Semi-quantitative analysis of proteins binding to different plaque particles: Tau” value (Tau plaque particles) was 0. The “Semi-quantitative analysis of proteins binding to different plaque particles: Abeta-42” value [3] was 4 and the “Semi-quantitative analysis of proteins binding to different plaque particles: Synuclein” value [4] was 0.
Alpha-2-macroglobulin was tested, and the “Semi-quantitative analysis of proteins binding to different plaque particles: Chl small” value [1] was 43, the “Semi-quantitative analysis of proteins binding to different plaque particles: Chl Large” value [2] was 43 and the “Semi-quantitative analysis of proteins binding to different plaque particles: Tau” value (Tau plaque particles) was 45. The “Semi-quantitative analysis of proteins binding to different plaque particles: Abeta-42” value [3] was 32 and the “Semi-quantitative analysis of proteins binding to different plaque particles: Synuclein” value [4] was 44.
For Coagulation factor XII, the “Semi-quantitative analysis of proteins binding to different plaque particles: Chl small” value [1] was 0, the “Semi-quantitative analysis of proteins binding to different plaque particles: Chl Large” value [2] was 0 and the “Semi-quantitative analysis of proteins binding to different plaque particles: Tau” value (Tau plaque particles) was 1. The “Semi-quantitative analysis of proteins binding to different plaque particles: Abeta-42” value [3] was 0 and the “Semi-quantitative analysis of proteins binding to different plaque particles: Synuclein” value [4] was 1.
With Tubulin beta-4B chain the “Semi-quantitative analysis of proteins binding to different plaque particles: Chl small” value [1] was 0, the “Semi-quantitative analysis of proteins binding to different plaque particles: Chl Large” value [2] was 0 and the “Semi-quantitative analysis of proteins binding to different plaque particles: Tau” value (Tau plaque particles) was 5. For the same substance, the “Semi-quantitative analysis of proteins binding to different plaque particles: Abeta-42” value [3] was 0 and the “Semi-quantitative analysis of proteins binding to different plaque particles: Synuclein” value [4] was 0.
In the case of Ig heavy chain V-III region WA, the “Semi-quantitative analysis of proteins binding to different plaque particles: Chl small” value [1] was 2, the “Semi-quantitative analysis of proteins binding to different plaque particles: Chl Large” value [2] was 1 and the “Semi-quantitative analysis of proteins binding to different plaque particles: Tau” value (Tau plaque particles) was 1. For the same substance, the “Semi-quantitative analysis of proteins binding to different plaque particles: Abeta-42” value [3] was 4 and the “Semi-quantitative analysis of proteins binding to different plaque particles: Synuclein” value [4] was 0.
For Filaggrin, the “Semi-quantitative analysis of proteins binding to different plaque particles: Chl small” value [1] was 0, the “Semi-quantitative analysis of proteins binding to different plaque particles: Chl Large” value [2] was 0 and the “Semi-quantitative analysis of proteins binding to different plaque particles: Tau” value (Tau plaque particles) was 0. The “Semi-quantitative analysis of proteins binding to different plaque particles: Abeta-42” value [3] was 2 and the “Semi-quantitative analysis of proteins binding to different plaque particles: Synuclein” value [4] was 0.
